Molecular target: HIV-1 RT (Human immunodeficiency virus type 1 group M subtype B, UniProt P04585)
Experiment: in vitro anti-HIV activity: inhibition of HIV-1 RT
Type: biochemical
Conditions: for activity against HIV-1 RT (result in words) / IC50: in vitro; for activity against HIV-1 RT (result in words): same biological target as the IC50 values

SMILES | activity against HIV-1 RT (result in words) | IC50 | other results
C=C1CCC[C@H]2[C@](CO)(Cc3cc(C(=O)OC)c(O)c(OC)c3O)[C@@H](C)CC[C@]12C [Compound 1, 19-hydroxy-polyfibrospongol B] | inactive |  | 
C=C1CCC[C@H]2[C@](CO)(Cc3cc(C(=O)OC)cc(OC)c3O)[C@@H](C)CC[C@]12C [Compound 2, polyfibrospongol B] | inactive |  | 
C=C1CCC[C@H]2[C@](C)(CC3=C(O)C(=O)C=C(OC)C3=O)[C@@H](C)CC[C@]12C [Compound 3, isosemnonorthoquinone] |  | 240 µM | 
C=C1CCC[C@H]2[C@](C)(CC3=C(O)C(=O)C=C(N)C3=O)[C@@H](C)CC[C@]12C [Compound 5, smenospongine] |  | 176 µM | 
C=C1CCC[C@H]2[C@](C)(CC(=O)C3=C(OC)C(O)OC3=O)[C@@H](C)CC[C@]12C (stereo partly drawn) [Compound 6, smenotronic acid] |  | 130 µM | 
O=C(O)P(=O)(O)O [PFA, reference compound] |  |  | inhibition ratio of HIV-1 RT (at 0.05 µM, positive control): 85%
